Results reported in ChEMBL document CHEMBL1201862, “PubChem BioAssay data set” (2004).
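Results reflect a 48-hour exposure of cells in 96-well plates to compound at five concentrations. Here, GI50 denotes the concentration required for 50% inhibition of growth.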 Active and inactive are the calls of the source. No stated cut-off is given here; in the data, active = GI50 up to about 1.1 µM and inactive = higher.

Tests used:
Test in all cases: inhibition of tumour cell growth, NCI panel, 48 h
[1] = system: A549
[2] = system: DU-145
[3] = system: HCT-116
[4] = system: HCT-15
[5] = system: MDA-MB-231
[6] = system: MDA-MB-435
[7] = system: NCI-H460
[8] = system: OVCAR-4
[9] = system: OVCAR-8
[10] = system: PC-3
[11] = system: RPMI-8226
[12] = system: SF-268
[13] = system: SK-MEL-5
[14] = system: SN12C
[15] = system: SNB-19
[16] = system: SR
[17] = system: T47D
[18] = system: TK-10
[19] = system: UACC-257
[20] = system: UO-31

| SMILES | GI50 [1] | GI50 [2] | GI50 [3] | GI50 [4] [µM] | GI50 [5] | GI50 [6] | GI50 [7] | GI50 [8] | GI50 [9] | GI50 [10] | GI50 [11] | GI50 [12] | GI50 [13] | GI50 [14] | GI50 [15] | GI50 [16] | GI50 [17] | GI50 [18] | GI50 [19] | GI50 [20] |
| --- | --- | --- | --- | --- | --- | --- | --- | --- | --- | --- | --- | --- | --- | --- | --- | --- | --- | --- | --- | --- |
| CC1C2CC(C(S(=O)(=O)N3CCOCC3)/C2=N\O)C1(C)C (stereo not given) | > 100 µM (inactive) | > 100 µM (inactive) | > 100 µM (inactive) | > 100 | > 100 µM (inactive) | > 100 µM (inactive) | > 100 µM (inactive) | > 100 µM (inactive) | > 100 µM (inactive) | > 100 µM (inactive) | > 100 µM (inactive) | > 100 µM (inactive) | > 100 µM (inactive) | > 100 µM (inactive) | > 100 µM (inactive) | > 100 µM (inactive) | > 100 µM (inactive) | > 100 µM (inactive) | > 100 µM (inactive) | > 100 µM (inactive) |
| COC(=O)[C@]12CC[C@H]3CN(S(=O)(=O)c4ccc(C)cc4)[C@H]([C@H]31)[C@H](c1ccco1)N2S(=O)(=O)c1ccc(C)cc1 | 31.2 µM (inactive) | 40.6 µM (inactive) | 27.2 µM (inactive) | 34 | 55.8 µM (inactive) | 22.9 µM (inactive) | 35.8 µM (inactive) | 27.7 µM (inactive) | 27.8 µM (inactive) | 28.8 µM (inactive) | 20 µM (inactive) | 42.3 µM (inactive) | 37.2 µM (inactive) | 37.6 µM (inactive) | > 100 µM (inactive) | 38.7 µM (inactive) | 14.1 µM (inactive) | 56.5 µM (inactive) | 28.6 µM (inactive) | 29.3 µM (inactive) |
| CC(C)(C)C(=O)/C=C(\OB(F)F)C(C)(C)C | > 100 µM (inactive) | > 100 µM (inactive) | > 100 µM (inactive) | > 100 | > 100 µM (inactive) | > 100 µM (inactive) | > 100 µM (inactive) | > 100 µM (inactive) | > 100 µM (inactive) | > 100 µM (inactive) | > 100 µM (inactive) | > 100 µM (inactive) | > 100 µM (inactive) | > 100 µM (inactive) | > 100 µM (inactive) | 84.5 µM (inactive) | > 100 µM (inactive) | > 100 µM (inactive) | > 100 µM (inactive) | > 100 µM (inactive) |
| O=c1c2cc(I)ccc2nc(S)n1Cc1ccccc1 | 15.9 µM (inactive) | 20.2 µM (inactive) | 9.14 µM (inactive) | 32.1 | 13.1 µM (inactive) | 83.6 µM (inactive) | 6.93 µM (inactive) | 9.71 µM (inactive) | 23.1 µM (inactive) | 13.7 µM (inactive) | 6.61 µM (inactive) | 11 µM (inactive) | 6.17 µM (inactive) | 10.6 µM (inactive) | 18.9 µM (inactive) | 30.7 µM (inactive) | > 100 µM (inactive) | 16.8 µM (inactive) | 11.7 µM (inactive) | 0.543 µM (active) |
| C=CCNC(=O)CN(CC(=O)O)C1CCCCC1N(CC(=O)O)CC(=O)O (stereo not given) | > 100 µM (inactive) | > 100 µM (inactive) | > 100 µM (inactive) | > 100 | > 100 µM (inactive) | > 100 µM (inactive) | > 100 µM (inactive) | > 100 µM (inactive) | > 100 µM (inactive) | > 100 µM (inactive) | > 100 µM (inactive) | > 100 µM (inactive) | > 100 µM (inactive) | > 100 µM (inactive) | > 100 µM (inactive) | > 100 µM (inactive) | > 100 µM (inactive) | > 100 µM (inactive) | > 100 µM (inactive) | > 100 µM (inactive) |
| Cc1cnoc1/N=C1\C=C(O)C(=O)c2ccccc21 | 6.7 µM (inactive) | 18 µM (inactive) | 19.9 µM (inactive) | 12.2 | 25.6 µM (inactive) | 1.31 µM (inactive) | 6.32 µM (inactive) | 20.4 µM (inactive) | 25.8 µM (inactive) | 25.4 µM (inactive) | 15.4 µM (inactive) | 17.8 µM (inactive) | 3.46 µM (inactive) | 1.77 µM (inactive) | 16.3 µM (inactive) | 33.6 µM (inactive) | 27.9 µM (inactive) | > 100 µM (inactive) | 16.3 µM (inactive) | 10.8 µM (inactive) |
| COC(=O)c1ccc(/C=C2\Cc3ccccc3C2=O)cc1 | > 100 µM (inactive) | > 100 µM (inactive) | > 100 µM (inactive) | > 100 | > 100 µM (inactive) | > 100 µM (inactive) | > 100 µM (inactive) | > 100 µM (inactive) | > 100 µM (inactive) | > 100 µM (inactive) | > 100 µM (inactive) | > 100 µM (inactive) | > 100 µM (inactive) | > 100 µM (inactive) | > 100 µM (inactive) | > 100 µM (inactive) | > 100 µM (inactive) | > 100 µM (inactive) | > 100 µM (inactive) | > 100 µM (inactive) |
| O=C(CCCN1CCC2(CC1)CC(c1ccccc1)OC2=O)c1ccc(F)cc1 (stereo not given) | > 100 µM (inactive) | 64.9 µM (inactive) | 33.8 µM (inactive) | 37.2 | 84.5 µM (inactive) | 41.3 µM (inactive) | 48.1 µM (inactive) | 37.9 µM (inactive) | > 100 µM (inactive) | 40.2 µM (inactive) | 30.1 µM (inactive) | 53.7 µM (inactive) | 15 µM (inactive) | 48.6 µM (inactive) | 39.2 µM (inactive) | 19.6 µM (inactive) | 16.2 µM (inactive) | 59 µM (inactive) | 23.6 µM (inactive) | 19.4 µM (inactive) |
| Cn1c(=O)c2nc(COCc3nc4c(=O)n(C)c(=O)n(C)c4[nH]3)[nH]c2n(C)c1=O | > 100 µM (inactive) | > 100 µM (inactive) | > 100 µM (inactive) | > 100 | > 100 µM (inactive) | > 100 µM (inactive) | > 100 µM (inactive) | > 100 µM (inactive) | > 100 µM (inactive) | > 100 µM (inactive) | > 100 µM (inactive) | > 100 µM (inactive) | > 100 µM (inactive) | > 100 µM (inactive) | > 100 µM (inactive) | > 100 µM (inactive) | > 100 µM (inactive) | > 100 µM (inactive) | > 100 µM (inactive) | > 100 µM (inactive) |
| COc1cc(OC)c2c(c1)OC(c1cccnc1)C(c1ccccc1)C2=O (stereo not given) | > 100 µM (inactive) | > 100 µM (inactive) | > 100 µM (inactive) | > 100 | > 100 µM (inactive) | 84.5 µM (inactive) | 34 µM (inactive) | 80.2 µM (inactive) | 59.3 µM (inactive) | 93.3 µM (inactive) | > 100 µM (inactive) | > 100 µM (inactive) | > 100 µM (inactive) | > 100 µM (inactive) | > 100 µM (inactive) | > 100 µM (inactive) | 52 µM (inactive) | > 100 µM (inactive) | > 100 µM (inactive) | 35.8 µM (inactive) |
| O=c1oc2cc(O)ccc2cc1-c1nc2ccccc2o1 | 29.5 µM (inactive) | 33.3 µM (inactive) | 41.6 µM (inactive) | 34.4 | 35.6 µM (inactive) | 28.2 µM (inactive) | 30.5 µM (inactive) | 29.8 µM (inactive) | 34.8 µM (inactive) | 42.4 µM (inactive) | 24.3 µM (inactive) | 32.2 µM (inactive) | 19.5 µM (inactive) | 49.7 µM (inactive) | 29.1 µM (inactive) | 30.9 µM (inactive) | 1.07 µM (active) | 37 µM (inactive) | 43.4 µM (inactive) | 26.9 µM (inactive) |
| O=C[C@@H](CO)O[C@H](C=O)n1cnc2c(=O)nc[nH]c21 | 849 µM (inactive) | 261 µM (inactive) | 177 µM (inactive) | 73.8 | 128 µM (inactive) | 243 µM (inactive) | 603 µM (inactive) | 399 µM (inactive) | 404 µM (inactive) | 376 µM (inactive) | 131 µM (inactive) | 431 µM (inactive) | 378 µM (inactive) | 266 µM (inactive) | 638 µM (inactive) | 181 µM (inactive) | 60.5 µM (inactive) | 596 µM (inactive) | 378 µM (inactive) | 401 µM (inactive) |
